According to patent US4138485A, “Phenylalanine derivatives” (Kyowa Hakko Kogyo Kabushiki Kaisha, priority 1976, dated 1979):
Where two headings read alike, the source gives them in different places.

Key:
[1] = system: hyperlipemia induced by Triton; test: Cholesterol-lowering activity on hyperlipemia induced by Triton in mice; type: in vivo, mice (male dd-strain); conditions: Mus musculus, read-out: Ratio of the reduction of cholesterol
Description: (2) Cholesterol-Lowering activity on hyperlipemia induced by Triton in mice:
38 Groups, each consisting of 9 mice (male dd-strain, weight -- 19 to 21 g), were used for the test and control groups. […] Immediately after the administration and also after 20 hours from the administration of Triton, the mice were orally administered with 100 mg/kg of the compound shown in Table 3. 43 hours after the administration of Triton, the blood samples were collected by decapitation and then the corpuscle was removed by centrifugation. Cholesterol in the serum was determined by Zurkowski's method modified by Shibata (color of the test solution was developed by using sulfoalicyclic acid, acetic acid and sulfuric acid and the optical density of the solution was determined at 620 mμ.

Mouse = test: Tonic convulsion of hind paw of mice (stimulus by hand touch); type: in vivo, mice (male dd-strain); conditions: oral, D = 1000 mg/kg, 30 to 360 minutes
Description: (§1) (1) Acute toxicity and tonic convulsion in hind paw:
(§2) The acute toxicity and tonic convulsion occured by stimulus by hand touch were determined in the following manner to give the results shown in Table 2.
(c) Tonic convulsion of hind paw of mice:
38 Groups, each consisting of 5 mice (male dd-strain, weight -- 18 to 24 g), were used for the test and control groups. The compounds shown in Table 2 were orally administered to the mice. At 30, 60, 120, 180 and 360 minutes after the administration, stimulus by hand touch was given to the mice and the tonic convulsion was observed.

Acute toxicity in mice = conditions: in vivo, mouse
Description: as §1, §2
(a) Acute toxicity in mice:
38 Groups, each consisting of 5 mice (male dd-strain, weight -- 18 to 24 g), were used for the test and control groups. The compounds shown in Table 2 were administered orally or intraperitoneally to the mice. After one week, the survival ratio was measured.

[2] = system: Triglyceride, phospholipid and free fatty acid in the serum; test: Determination of triglyceride, phospholipid and free fatty acid in the serum of normal rats; type: in vivo, rats (Wistar strain); conditions: for A - Ratio of decrease of triglyceride / B - Ratio of decrease of phospholipid / C - Ratio of decrease of free fatty acid: continuous administration for 4 days
Description: (ii) Determination of triglyceride, phospholipid and free fatty acid in the serum of normal rats of Wistar strain: Clofibrate and Compounds 1 and 2 were tested in a similar manner to that described in (i). Triglyceride, phospholipid and free fatty acid in the serum were determined in the following manner to give the results shown in Table 5. (a) Determination of triglyceride: Triglyceride was determined by acetylacetone method [Kazuo Matsumiya et al "Rinsho Byori", Vol. 18, page 383 (1970), Japan] in the following manner. Isopropyl alcohol was added to the test solution of the serum to extract triglyceride which was then saponified with potassium hydroxide to give glycerol. The glycerol was oxidized by using sodium salt of methaperiodic acid to convert it into formaldehyde. Color of the test solution was developed by acetylacetone and the optical density at 420 mμ was determined. (b) Determination of phospholipid: "Phospholipid Test Wako", a reagent available from Wako Junyaku K.K., Japan, was used for the determination of phospholipid in the following manner according to a similar manner to that described in "Rinsho Byori", Vol. 17, page 389 (1969), Japan, by Atsuo […] et al. Trichloroacetic acid was added to the serum to give precipitates of lipoprotein which were then added with sulfuric acid and potassium permanganate to form phosphoric acid. Color of the test solution was developed by ammonium molybdate and the optical density was determined at 660 mμ. (c) Determination of free fatty acid: Laurell's method [CLin. Chim. Acta. 16, 57 (1967)] was used for determination in the following manner. […] After shaking for 5 minutes, the solution was centrifuged. 5 Ml of the supernatant was put into another tube and was added with 2 ml of copper reagent. […] The optical density at 550 mμ was determined.

[3] = system: cholesterol and triglyceride in the serum; test: Lipid lowering activity in cynomolgus monkeys; type: in vivo, cynomolgus monkeys (male, born in Malaysia); conditions: 100 mg/kg/day oral, 10 days; for Decrease Ratio of Cholesterol / Decrease Ratio of Triglyceride: average of 3 times cross-over
Description: (6) Lipid lowering activity in cynomolgus monkeys:
6 cynomolgus monkeys (male, born in Malaysia, weight -- 2.5 to 3.9 kg) were used for this test. All monkies were breeded in individual cages at a temperature from 23° to 25° C. and fed with a solid diet for monkey (available from Oriental Yeast K.K., Japan) and sweet potatoes every morning and with apples and bananas from time to time. The monkeys were divided into 3 groups, each consisting of 2 monkeys, to orally and compulsively administer the test compound in an amount of 100 mg/kg/day once in every morning for 10 days. At 11 days after the first administration, before feeding the diet in early morning blood samples were collected from the saphenae of the monkeys to determine cholesterol and triglyceride in a similar manner to that described above. The ratio of lowering cholesterol (RCL) or triglyceride (RLT) was calculated by the following formula. [formula] wherein A is the average amount of the cholesterol or triglyceride in the serum before administration, and B is the corresponding amont after administration for 10 days.
After an interval of 5 weeks, another compound was administered to determine cholesterol or triglyceride in a similar manner to that described above. After a further interval of 5 weeks, a similar procedure was repeated by using another compound to determine cholesterol or triglyceride.

[4] = system: hyperlipemia induced by Triton; test: Effect on hyperlipemia induced by Triton in rats: activity in the increasing phase; type: in vivo, rats (male Wistar strain); conditions: for activity in the developing phase (in words): Clofibrate, Compounds 1 and 2 compared with each other; for Cholesterol / Cholesterol, Ratio of decrease / Triglyceride / Triglyceride, Ratio of decrease: serum, increasing phase, 200 mg/kg oral, 20 hours
Description: (§3) (4) Effect on hyperlipemia induced by Triton in rats:
(i) Activity in the increasing phase:
(§4) 3 Groups, each consisting of 9 rats (male Wistar strain, weight -- 200 to 240 g) fasted for 24 hours were used for this test. Each rat was administered intravenously with 200 mg/kg of Triton (WR-1339), followed by oral administration of 200 mg/kg of the compounds shown in Table 6. After 20 hours from the administration, the blood samples were collected by decapitation. Cholesterol and triglyceride in the serum were determined in a similar manner to that used in (2, ii) to give the results shown in Table 6.

Acute toxicity in rats = conditions: rat, in vivo
Description: as §1, §2
(b) Acute toxicity in rats:
28 Groups, each consisting of 5 rats (male Wistar strain, weight -- 200 g), were used for the test and control groups. The compounds shown in Table 2 were orally administered to the rats. After one week, the survival ratio was measured.

[5] = system: glycerol induced hyperlipemia; test: Lipid lowering effects on glycerol induced hyperlipemia in rats; type: in vivo, rats (male Wistar strain); conditions: 0.25% in diet; for Cholesterol / Cholesterol, Ratio of decrease / Triglyceride / Triglyceride, Ratio of decrease: serum, 15% glycerol in water
Description: (5) Lipid lowering effects on glycerol induced hyperlipemia in rats: The test was carried out in a similar method to that by […] et al [Life Science, 3, 1021 (1964)] . A group consisting of 10 rats (male Wistar strain, weight - 190 to 210 g) was used for each of the test and control groups. Hyperlipemia occurred by feeding the rats ad libitum with water containing 15% (by volume) of glycerol. […] After this, the blood samples were collected by decapitation and the serum was separated by centrifugation.

Cholesterol in the serum = test: Cholesterol-lowering activity on normal rats of Wistar strain (serum cholesterol, liver weight); type: in vivo, rats (male Wistar strain); conditions: 0.3% in diet; for B - Ratio of decrease of liver weight: continuous administration for 4 days; for C - Ratio of decrease of cholesterol / D - Ratio of increase of liver weight: continuous administration for 14 days
Description: (3) Cholesteral-lowering activity on normal rats of Wistar strain:
(i) 22 Groups, each consisting of 5 rats (male Wistar strain, weight -- 150 to 180 g) were used for the test and control groups. After this, the blood samples were collected by decapitation and then the corpuscle was removed by centrifugation. Cholesterol in the serum was determined by Zurkowski's method modified by Shibata and also the liver was excised and weighed. The results are shown in Table 4 wherein the ratio of 100% denotes the amount of chloresterol and the weight of the liver of normal rats fed with powdery diet without the addition of the compound.

[6] = system: hyperlipemia induced by Triton; test: Effect on hyperlipemia induced by Triton in rats: activity in the decreasing phase; type: in vivo, rats (male Wistar strain); conditions: for Cholesterol / Cholesterol, Ratio of decrease / Triglyceride / Triglyceride, Ratio of decrease: serum, decreasing phase, 200 mg/kg oral 25 hours after Triton, sampled at 30 hours
Description: as §3, §4
(II) Activity in the decreasing phase:
Hyperlipemia occurred by administering Triton (WR-1339) in a similar manner to that in (i). After 25 hours, 200 mg/kg of the compounds were orally administered to the rats. After 30 hours from the injection of Triton, the blood samples were collected by decapitation.

[7] = oral administration, after one week, read-out: Acute Toxicity (LD50), A

| Compound | inhibition in vivo at 100 mg/kg ([1]; po, 43 h) [%] | Tonic convulsion (Mouse) | LD50 at 168 h (Acute toxicity in mice; [7]) [mg/kg] | A - Ratio of decrease of triglyceride [2] [%] | B - Ratio of decrease of phospholipid [2] [%] | C - Ratio of decrease of free fatty acid [2] [%] | cholesterol-lowering activity (in words) [3] | Decrease Ratio of Cholesterol [3] [%] | Decrease Ratio of Triglyceride [3] [%] | activity in the developing phase (in words) [4] | Cholesterol [4] [mg/dL] | Cholesterol, Ratio of decrease [4] [%] | Triglyceride [4] [mg/dL] | Triglyceride, Ratio of decrease [4] [%] | activity on lowering triglyceride and cholesterol (in words) [5] | Cholesterol [5] [mg/dL] | Cholesterol, Ratio of decrease [5] [%] | Triglyceride [5] [mg/dL] | Triglyceride, Ratio of decrease [5] [%] | B - Ratio of decrease of liver weight (Cholesterol in the serum) [%] | other results |
| --- | --- | --- | --- | --- | --- | --- | --- | --- | --- | --- | --- | --- | --- | --- | --- | --- | --- | --- | --- | --- | --- |
| Cc1ccccc1CSC(=O)N[C@@H](Cc1ccccc1)C(=O)O [Compound 20, N-(2-methylbenzylthiocarbonyl)-L-phenylalanine] | 47 | + | > 1000 | – | – | – | – | – | – | – | – | – | – | – | – | – | – | – | – | – | – |
| Cc1cccc(CSC(=O)N[C@@H](Cc2ccccc2)C(=O)O)c1 [Compound 22, N-(3-methylbenzylthiocarbonyl)-L-phenylalanine] | 46 | + | > 1000 | – | – | – | – | – | – | – | – | – | – | – | – | – | – | – | – | – | – |
| COC(=O)[C@H](Cc1ccccc1)NC(=O)SCc1ccccc1C [Compound 21, N-(2-methylbenzylthiocarbonyl)-L-phenylalanine methylester] | 43 | + | > 1000 | – | – | – | – | – | – | – | – | – | – | – | – | – | – | – | – | – | – |
| CCOC(=O)C(C)(C)Oc1ccc(Cl)cc1 [Clofibrate, reference compound] | – | – | – | 50.1 | 25.0 | 26.7 | have a cholesterol-lowering activity | 6.7 | 9.0 | substantially equal | 203 | 20.8 | 856 | 36.0 | have an activity on lowering triglyceride and cholesterol | 39.1 | 30.6 | 129 | 74.0 | 40.1 | inhibition in vivo at 100 mg/kg ([1]; 100 mg/kg oral, twice (0 and 20 hours after Triton 600 mg/kg i.v.), serum at 43 hours): 40%; LD50 at 168 h (Acute toxicity in rats; po): > 200 mg/kg; C - Ratio of decrease of cholesterol (Cholesterol in the serum): 32.3%; D - Ratio of increase of liver weight (Cholesterol in the serum): 60.1%; Cholesterol [6]: 138 mg/dL; Cholesterol, Ratio of decrease [6]: 7.5%; Triglyceride [6]: 401 mg/dL; Triglyceride, Ratio of decrease [6]: -15.6%; LD50 at 168 h (Acute toxicity in mice; ip): 1620 mg/kg; LD50 at 168 h (Acute toxicity in mice; po): 2100 mg/kg |
| COC(=O)[C@H](Cc1ccccc1)NC(=O)SCc1ccc(C)cc1 [Compound 2, N-(4-methylbenzylthiocarbonyl)-L-phenylalanine methylester] | 38 | – | > 4000 | 2.1 | 10.9 | 21.8 | have a cholesterol-lowering activity | 9.7 | -7.3 | substantially equal | 202 | 21.3 | 729 | 45.5 | have an activity on lowering triglyceride and cholesterol | 47.5 | 15.7 | 261 | 41.3 | 8.2 | lowering activity on lipids other than cholesterol (in words) ([2]; normal rats, 4 days): have a lowering activity on lipids other than cholesterol; LD50 at 168 h (Acute toxicity in rats; oral administration, after one week, read-out: Acute Toxicity (LD50), C): > 900 mg/kg; C - Ratio of decrease of cholesterol (Cholesterol in the serum): 17.5%; D - Ratio of increase of liver weight (Cholesterol in the serum): 3.9%; activity in the decreasing phase (in words) ([6]; compared with Clofibrate): superior to that of Clofibrate; Cholesterol [6]: 116 mg/dL; Cholesterol, Ratio of decrease [6]: 22.2%; Triglyceride [6]: 205 mg/dL; Triglyceride, Ratio of decrease [6]: 40.9%; LD50 at 168 h (Acute toxicity in mice; ip, intraperitoneal administration, after one week, read-out: Acute Toxicity (LD50), B): > 100 mg/kg |
